According to ChEMBL document CHEMBL5465560, “Selectivity Literature for EUbOPEN Chemogenomic Library” (2024):
Blank lines part the entries; values can stand above or below the compound they belong to.

Experiments:
[1] = target: Phosphatidylinositol 4-phosphate 3-kinase C2 domain-containing subunit alpha (Homo sapiens) (UniProt O00443); assay: Selectivity interaction (Adapta Assay) EUB0001632a PIK3C2A; settings: at 10 µM
[2] = target: Serine/threonine-protein kinase 32B (Homo sapiens) (UniProt Q9NY57); assay: Selectivity interaction (LanthaScreen Eu Kinase Binding Assay) EUB0001632a STK32B; settings: at 10 µM
[3] = target: T1, Serine/threonine-protein kinase Chk1 (Homo sapiens) (UniProt O14757); assay: Selectivity interaction (Kinase panel (Z-LYTE Assay)) EUB0001632a CHEK1; settings: at 10 µM
T1 sequence (whole entry): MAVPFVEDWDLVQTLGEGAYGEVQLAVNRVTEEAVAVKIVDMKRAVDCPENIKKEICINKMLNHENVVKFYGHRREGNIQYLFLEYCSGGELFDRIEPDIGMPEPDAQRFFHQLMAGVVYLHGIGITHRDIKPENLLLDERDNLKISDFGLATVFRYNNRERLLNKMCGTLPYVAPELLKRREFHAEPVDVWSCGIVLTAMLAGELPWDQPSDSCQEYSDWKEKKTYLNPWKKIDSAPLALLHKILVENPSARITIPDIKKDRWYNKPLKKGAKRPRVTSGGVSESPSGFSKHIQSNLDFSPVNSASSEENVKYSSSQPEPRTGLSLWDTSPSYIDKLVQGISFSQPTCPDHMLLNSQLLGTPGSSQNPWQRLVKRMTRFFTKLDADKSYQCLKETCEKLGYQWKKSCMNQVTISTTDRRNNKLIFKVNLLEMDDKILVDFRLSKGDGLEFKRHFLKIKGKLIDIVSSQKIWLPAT

[4] = target: Bone morphogenetic protein receptor type-1A (Homo sapiens, UniProt P36894); assay: Selectivity interaction (LanthaScreen Eu Kinase Binding Assay) EUB0001632a BMPR1A; settings: at 10 µM
[5] = target: Tyrosine-protein kinase JAK2 (Homo sapiens, UniProt O60674); settings: at 10 µM
[6] = target: Cyclin-dependent kinase 9 (Homo sapiens, UniProt P50750); assay: Selectivity interaction (ActivX KiNativ screen (kinase selectivity in THP-1 cell lysates)) EUB0000639a CDK9; assay type: subcellular; settings: lysate
[7] = target: T2, Histone-lysine N-methyltransferase SMYD3 (Homo sapiens) (UniProt Q9H7B4); assay: Selectivity interaction (Methyltransferase screen (Scintillation proximity assays)) EUB0000255b SMYD3
T2 sequence (whole entry): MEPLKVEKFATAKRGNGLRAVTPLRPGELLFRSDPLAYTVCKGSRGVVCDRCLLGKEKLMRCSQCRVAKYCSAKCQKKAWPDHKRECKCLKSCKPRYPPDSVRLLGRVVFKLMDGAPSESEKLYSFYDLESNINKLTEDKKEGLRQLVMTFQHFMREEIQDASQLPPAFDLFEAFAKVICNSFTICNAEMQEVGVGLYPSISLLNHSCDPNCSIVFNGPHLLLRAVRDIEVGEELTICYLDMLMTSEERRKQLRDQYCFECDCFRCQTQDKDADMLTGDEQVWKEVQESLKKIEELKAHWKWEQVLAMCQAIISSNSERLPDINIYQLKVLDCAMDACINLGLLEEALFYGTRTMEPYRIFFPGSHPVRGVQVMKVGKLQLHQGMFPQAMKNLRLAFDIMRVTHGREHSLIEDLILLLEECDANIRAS

[8] = target: T3, NUAK family SNF1-like kinase 2 (Homo sapiens) (UniProt Q9H093); assay: Selectivity interaction (KinomeScan (DiscoverX)) EUB0001049a NUAK2; settings: at 1 µM
T3 sequence (whole entry): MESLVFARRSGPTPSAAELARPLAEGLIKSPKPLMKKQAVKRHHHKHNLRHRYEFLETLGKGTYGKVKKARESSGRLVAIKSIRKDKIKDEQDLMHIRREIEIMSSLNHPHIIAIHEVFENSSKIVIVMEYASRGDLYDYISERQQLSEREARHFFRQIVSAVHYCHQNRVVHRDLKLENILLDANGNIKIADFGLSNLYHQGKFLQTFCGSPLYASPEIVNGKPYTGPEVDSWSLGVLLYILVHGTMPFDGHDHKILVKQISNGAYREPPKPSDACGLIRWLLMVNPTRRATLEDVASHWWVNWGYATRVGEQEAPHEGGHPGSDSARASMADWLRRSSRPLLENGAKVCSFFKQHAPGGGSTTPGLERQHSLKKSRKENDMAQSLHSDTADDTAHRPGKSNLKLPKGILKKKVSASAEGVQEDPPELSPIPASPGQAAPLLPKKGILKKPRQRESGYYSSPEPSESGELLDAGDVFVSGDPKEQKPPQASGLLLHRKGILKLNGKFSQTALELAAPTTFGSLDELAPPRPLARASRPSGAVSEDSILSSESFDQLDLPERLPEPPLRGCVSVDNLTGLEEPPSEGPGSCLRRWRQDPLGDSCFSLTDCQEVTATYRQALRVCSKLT

[9] = target: T4, Protein kinase C epsilon type (Homo sapiens) (UniProt Q02156); assay: Selectivity interaction (KinomeScan (DiscoverX)) EUB0001049a PRKCE; settings: at 1 µM
T4 sequence (whole entry): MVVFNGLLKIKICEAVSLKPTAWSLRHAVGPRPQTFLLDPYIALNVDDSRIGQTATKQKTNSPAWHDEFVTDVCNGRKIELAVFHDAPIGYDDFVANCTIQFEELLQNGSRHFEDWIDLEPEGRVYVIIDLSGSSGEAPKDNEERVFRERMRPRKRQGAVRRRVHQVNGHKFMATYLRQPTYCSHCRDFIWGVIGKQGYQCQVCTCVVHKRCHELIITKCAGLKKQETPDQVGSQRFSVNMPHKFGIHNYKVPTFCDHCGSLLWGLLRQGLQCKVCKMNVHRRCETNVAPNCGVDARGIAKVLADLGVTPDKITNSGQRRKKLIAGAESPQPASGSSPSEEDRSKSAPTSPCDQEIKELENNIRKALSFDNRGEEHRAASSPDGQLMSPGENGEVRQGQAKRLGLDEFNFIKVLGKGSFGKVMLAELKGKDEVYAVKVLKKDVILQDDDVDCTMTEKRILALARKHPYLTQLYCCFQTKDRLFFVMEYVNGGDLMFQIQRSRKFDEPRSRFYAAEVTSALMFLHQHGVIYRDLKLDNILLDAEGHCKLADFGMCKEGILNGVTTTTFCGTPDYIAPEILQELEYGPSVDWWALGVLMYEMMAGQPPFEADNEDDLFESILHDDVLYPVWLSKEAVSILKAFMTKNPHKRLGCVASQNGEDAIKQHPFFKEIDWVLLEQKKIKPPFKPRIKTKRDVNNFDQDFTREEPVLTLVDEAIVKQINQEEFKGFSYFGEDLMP

Sequence of Cyclin-dependent kinase 9 (P50750 whole entry): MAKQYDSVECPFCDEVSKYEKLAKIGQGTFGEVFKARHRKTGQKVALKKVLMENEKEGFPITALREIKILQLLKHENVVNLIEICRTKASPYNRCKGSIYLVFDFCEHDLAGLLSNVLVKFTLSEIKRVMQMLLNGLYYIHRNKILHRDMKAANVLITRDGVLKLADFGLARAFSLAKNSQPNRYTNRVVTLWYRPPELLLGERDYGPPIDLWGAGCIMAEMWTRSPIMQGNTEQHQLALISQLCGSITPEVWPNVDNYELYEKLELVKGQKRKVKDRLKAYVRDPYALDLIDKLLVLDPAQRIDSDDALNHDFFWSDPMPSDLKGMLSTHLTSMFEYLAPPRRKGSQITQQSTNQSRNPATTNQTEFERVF
Sequence of Serine/threonine-protein kinase 32B (Homo sapiens) (Q9NY57 whole entry): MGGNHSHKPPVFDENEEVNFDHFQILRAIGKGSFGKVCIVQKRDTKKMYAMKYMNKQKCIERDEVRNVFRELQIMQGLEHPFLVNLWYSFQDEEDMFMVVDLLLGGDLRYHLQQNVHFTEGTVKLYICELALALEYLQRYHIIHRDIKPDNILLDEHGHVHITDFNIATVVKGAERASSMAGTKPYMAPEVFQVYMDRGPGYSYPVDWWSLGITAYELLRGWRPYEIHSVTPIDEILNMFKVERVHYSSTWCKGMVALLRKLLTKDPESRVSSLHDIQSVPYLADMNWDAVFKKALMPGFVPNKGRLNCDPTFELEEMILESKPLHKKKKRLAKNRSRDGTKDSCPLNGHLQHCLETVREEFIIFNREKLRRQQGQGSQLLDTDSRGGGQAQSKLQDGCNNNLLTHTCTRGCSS
Sequence of Bone morphogenetic protein receptor type-1A (P36894 whole entry): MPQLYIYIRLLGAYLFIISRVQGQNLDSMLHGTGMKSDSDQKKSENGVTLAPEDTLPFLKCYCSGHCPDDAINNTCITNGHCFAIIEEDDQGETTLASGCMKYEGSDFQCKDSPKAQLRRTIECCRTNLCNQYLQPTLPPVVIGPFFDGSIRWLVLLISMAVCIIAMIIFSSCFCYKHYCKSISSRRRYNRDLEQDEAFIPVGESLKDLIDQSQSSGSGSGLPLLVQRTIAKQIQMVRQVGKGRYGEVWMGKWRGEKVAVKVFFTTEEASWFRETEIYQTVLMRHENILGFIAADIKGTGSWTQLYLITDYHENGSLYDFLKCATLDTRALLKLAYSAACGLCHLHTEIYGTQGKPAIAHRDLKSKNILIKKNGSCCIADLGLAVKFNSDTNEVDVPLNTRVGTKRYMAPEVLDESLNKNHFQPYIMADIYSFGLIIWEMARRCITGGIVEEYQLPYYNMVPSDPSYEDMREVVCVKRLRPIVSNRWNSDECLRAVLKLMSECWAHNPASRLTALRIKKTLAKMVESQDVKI
Sequence of Tyrosine-protein kinase JAK2 (O60674 whole entry): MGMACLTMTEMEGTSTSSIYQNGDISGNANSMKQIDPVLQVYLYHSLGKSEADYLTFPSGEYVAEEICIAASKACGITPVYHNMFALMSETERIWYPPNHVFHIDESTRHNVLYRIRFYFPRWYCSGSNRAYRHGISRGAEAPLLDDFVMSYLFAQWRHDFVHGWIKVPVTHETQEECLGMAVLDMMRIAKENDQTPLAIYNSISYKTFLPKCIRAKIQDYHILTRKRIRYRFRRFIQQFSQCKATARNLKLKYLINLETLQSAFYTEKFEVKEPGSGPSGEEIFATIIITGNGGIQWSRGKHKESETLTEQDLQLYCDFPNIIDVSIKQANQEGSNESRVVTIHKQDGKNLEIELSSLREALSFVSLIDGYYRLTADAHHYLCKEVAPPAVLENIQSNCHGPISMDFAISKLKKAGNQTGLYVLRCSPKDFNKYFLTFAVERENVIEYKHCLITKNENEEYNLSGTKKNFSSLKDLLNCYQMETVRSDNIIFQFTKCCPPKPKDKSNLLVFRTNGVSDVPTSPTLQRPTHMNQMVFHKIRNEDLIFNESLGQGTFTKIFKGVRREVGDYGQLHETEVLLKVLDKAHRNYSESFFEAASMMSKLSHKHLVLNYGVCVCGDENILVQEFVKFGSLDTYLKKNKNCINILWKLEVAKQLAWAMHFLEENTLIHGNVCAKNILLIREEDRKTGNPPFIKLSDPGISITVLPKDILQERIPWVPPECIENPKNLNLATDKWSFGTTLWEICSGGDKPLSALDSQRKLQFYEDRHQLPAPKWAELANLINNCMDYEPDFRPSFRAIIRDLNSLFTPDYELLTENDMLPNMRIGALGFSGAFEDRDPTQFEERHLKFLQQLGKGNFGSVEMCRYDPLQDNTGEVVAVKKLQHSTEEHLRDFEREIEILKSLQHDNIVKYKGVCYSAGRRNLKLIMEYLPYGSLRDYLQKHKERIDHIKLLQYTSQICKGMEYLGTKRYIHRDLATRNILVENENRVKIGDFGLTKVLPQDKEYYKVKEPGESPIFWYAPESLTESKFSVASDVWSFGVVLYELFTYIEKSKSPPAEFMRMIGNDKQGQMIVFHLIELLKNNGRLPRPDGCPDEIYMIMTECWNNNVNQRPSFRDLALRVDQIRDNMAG
Sequence of Phosphatidylinositol 4-phosphate 3-kinase C2 domain-containing subunit alpha (Homo sapiens) (O00443 whole entry, the tested form may be a part): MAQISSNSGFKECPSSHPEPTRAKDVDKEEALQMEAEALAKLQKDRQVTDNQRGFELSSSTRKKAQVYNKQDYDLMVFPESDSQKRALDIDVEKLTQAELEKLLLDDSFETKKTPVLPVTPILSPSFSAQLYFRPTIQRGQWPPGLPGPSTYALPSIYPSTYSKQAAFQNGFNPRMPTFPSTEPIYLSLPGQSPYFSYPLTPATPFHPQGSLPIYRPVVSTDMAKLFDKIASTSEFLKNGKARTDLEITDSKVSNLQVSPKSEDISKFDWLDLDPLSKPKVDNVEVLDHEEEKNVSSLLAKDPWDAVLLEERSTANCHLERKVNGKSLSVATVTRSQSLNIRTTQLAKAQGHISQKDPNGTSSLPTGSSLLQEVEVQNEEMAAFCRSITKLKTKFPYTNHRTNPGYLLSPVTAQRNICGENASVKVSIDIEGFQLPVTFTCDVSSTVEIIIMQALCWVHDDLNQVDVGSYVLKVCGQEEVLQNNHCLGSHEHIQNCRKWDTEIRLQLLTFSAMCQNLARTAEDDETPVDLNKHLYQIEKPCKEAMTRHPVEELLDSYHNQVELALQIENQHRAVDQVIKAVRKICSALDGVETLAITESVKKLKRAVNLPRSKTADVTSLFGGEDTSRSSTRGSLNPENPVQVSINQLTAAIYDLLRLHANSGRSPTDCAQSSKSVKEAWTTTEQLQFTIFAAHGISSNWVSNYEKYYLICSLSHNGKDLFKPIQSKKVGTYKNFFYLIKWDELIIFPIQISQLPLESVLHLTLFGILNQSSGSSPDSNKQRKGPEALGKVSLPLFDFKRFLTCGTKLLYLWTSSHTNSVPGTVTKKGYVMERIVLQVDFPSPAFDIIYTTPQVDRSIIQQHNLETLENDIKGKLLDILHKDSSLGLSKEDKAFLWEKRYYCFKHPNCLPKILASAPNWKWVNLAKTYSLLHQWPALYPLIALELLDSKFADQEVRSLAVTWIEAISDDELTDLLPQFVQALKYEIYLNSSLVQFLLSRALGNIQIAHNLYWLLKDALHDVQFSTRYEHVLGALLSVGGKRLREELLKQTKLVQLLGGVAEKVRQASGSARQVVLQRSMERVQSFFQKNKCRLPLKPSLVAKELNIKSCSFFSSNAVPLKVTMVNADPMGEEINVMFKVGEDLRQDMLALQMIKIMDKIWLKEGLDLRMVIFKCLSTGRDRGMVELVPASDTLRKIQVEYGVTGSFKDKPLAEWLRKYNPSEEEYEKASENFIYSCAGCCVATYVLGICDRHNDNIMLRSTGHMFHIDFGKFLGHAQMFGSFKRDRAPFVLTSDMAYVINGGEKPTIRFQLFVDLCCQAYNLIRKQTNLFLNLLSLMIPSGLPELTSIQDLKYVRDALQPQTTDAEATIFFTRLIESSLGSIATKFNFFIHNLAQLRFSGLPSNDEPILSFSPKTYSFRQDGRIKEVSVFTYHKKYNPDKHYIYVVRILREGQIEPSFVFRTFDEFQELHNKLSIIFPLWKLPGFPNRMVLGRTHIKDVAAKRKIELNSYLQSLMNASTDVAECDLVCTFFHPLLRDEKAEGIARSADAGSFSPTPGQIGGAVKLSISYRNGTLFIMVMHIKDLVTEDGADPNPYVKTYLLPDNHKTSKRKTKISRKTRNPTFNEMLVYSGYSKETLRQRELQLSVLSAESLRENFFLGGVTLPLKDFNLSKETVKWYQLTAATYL

% of inhibition [1]: 5.89%
% of inhibition [2]: -8.62%
% of control [3]: 37.8%
% of inhibition [4]: -8.67%
SMILES: Cn1cc(-n2cnc3c(NCc4nc5cc(Cl)c(Cl)cc5[nH]4)nc(N4CCOCC4)nc32)cn1

% of control [5]: 100%
SMILES: CCN(CC)CCCCNc1ncc2cc(-c3cc(OC)cc(OC)c3)c(NC(=O)NC(C)(C)C)nc2n1

% of inhibition ([6]; at 0.01 µM): 16.2%
% of inhibition ([6]; at 0.04 µM): 0.9%
% of inhibition ([6]; at 0.2 µM): 2.5%
% of inhibition ([6]; at 1 µM): -1%
% of inhibition ([6]; at 5 µM): 33%
SMILES: CC[C@@H]1[C@H](F)C(=O)N[C@@H]1COc1nccc2cc(C(N)=O)c(OC)cc12 [ZIMLOVISERTIB]

SMILES: COCCN1CCC(c2cc(CN(C)C(=O)c3cccc(Oc4ccccc4)c3)ccn2)CC1
% activity ([7]; at 1 µM): > 95%
% activity ([7]; at 10 µM): 83%

SMILES: COc1cc(Nc2nc(C)cc(-c3cnn4nc(OC)ccc34)n2)cc(C(F)(F)F)c1
% of control [8]: 93%
% of control [9]: 100%
